Assay results: ChEMBL document CHEMBL1201862, “PubChem BioAssay data set” (2004)
Calls of active or inactive are those of the source.

Columns and labels:
Cytochrome P450 3A4 = Cytochrome P450 3A4 (Homo sapiens, UniProt P08684); settings: Potency;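 note: confirmatory qHTS run detecting inhibitors and substrates of CYP3A4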
cells [1] = assay: cells
Major prion protein = Major prion protein (Homo sapiens, UniProt P04156); type: functional, cell-based
[2] = target: T1, Type-1 angiotensin II receptor (Homo sapiens, UniProt P30556); assay: antagonism of angiotensin II type 1 receptor – cell-based, uHTS hits, selectivity assay for APJ receptor antagonist project, dose response (AID 463214); type: functional;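 note: antagonist potency against angiotensin II stimulated AT1 response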
T1 sequence (P30556 whole entry): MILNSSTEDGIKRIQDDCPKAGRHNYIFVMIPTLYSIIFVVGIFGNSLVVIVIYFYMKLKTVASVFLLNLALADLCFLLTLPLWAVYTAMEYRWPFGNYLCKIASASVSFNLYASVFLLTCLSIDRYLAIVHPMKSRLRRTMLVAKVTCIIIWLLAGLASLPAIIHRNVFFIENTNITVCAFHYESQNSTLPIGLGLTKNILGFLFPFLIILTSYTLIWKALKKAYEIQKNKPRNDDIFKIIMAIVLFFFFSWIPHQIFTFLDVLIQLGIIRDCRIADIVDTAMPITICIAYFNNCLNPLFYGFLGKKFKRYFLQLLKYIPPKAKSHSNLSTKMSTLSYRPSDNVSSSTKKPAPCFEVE

Beta-galactosidase = Beta-galactosidase (Escherichia coli, UniProt Q8VNN2); assay: PubChem AID 485352; type: functional
[3] = target: T2, High affinity choline transporter 1 (Homo sapiens, UniProt Q9GZV3); assay: human choline transporter blockers, potency – cell-based, 5-point CRC, membrane potential dye, dose response (AID 504840); type: functional
T2 sequence (Q9GZV3 whole entry): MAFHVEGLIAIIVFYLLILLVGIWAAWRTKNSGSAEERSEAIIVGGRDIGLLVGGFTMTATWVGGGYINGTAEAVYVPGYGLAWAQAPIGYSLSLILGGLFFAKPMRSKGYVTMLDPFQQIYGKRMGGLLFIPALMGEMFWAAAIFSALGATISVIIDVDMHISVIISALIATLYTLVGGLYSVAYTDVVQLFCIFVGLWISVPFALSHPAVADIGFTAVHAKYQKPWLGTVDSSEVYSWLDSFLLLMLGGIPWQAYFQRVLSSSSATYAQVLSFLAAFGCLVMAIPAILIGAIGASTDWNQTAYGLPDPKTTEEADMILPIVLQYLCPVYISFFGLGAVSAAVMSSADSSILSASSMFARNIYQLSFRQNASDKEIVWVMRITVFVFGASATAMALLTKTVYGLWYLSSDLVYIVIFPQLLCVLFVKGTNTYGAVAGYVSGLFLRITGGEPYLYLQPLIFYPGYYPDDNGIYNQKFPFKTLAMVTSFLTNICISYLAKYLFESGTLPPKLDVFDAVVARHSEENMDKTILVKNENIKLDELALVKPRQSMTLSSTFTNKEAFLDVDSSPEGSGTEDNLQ

[4] = NIH3T3 cell viability loss – ATP luminescence, mouse fibroblasts, counter-screen, dose response (AID 2010); type: functional, cell-based;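 note: cells exposed to compound for about 90 hours before reading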
[5] = viability of PTEN-deleted HCT116 cells – cell-based, HCT116 PTEN knockout, dose response (AID 1047); type: functional;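 note: HCT116 colon tumor cells with PTEN knocked out; cells exposed to compound for 60 hours before readout; potency for loss of cell viability measured by luminescence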
[6] = viability of HCT116 lacking mutant beta-catenin – cell-based, human colon tumor, dose response (AID 1045); type: functional;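 note: HCT116 colon tumor cells with beta catenin knocked out; cells exposed to compound for 60 hours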
[7] = Trypanosoma cruzi growth suppression in host cells – NIH3T3 host cells, beta-gal luminescence, confirmation (AID 2044); type: functional, cell-based;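 note: intracellular parasites grown in NIH/3T3 mouse fibroblasts as host cells; luminescent beta-galactosidase reporter signal from transgenic T. cruzi replicating inside host cells; inhibitors lower the luminescence signal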
[8] = blockers of HIV-1 ZM109 envelope-driven cell-cell fusion – HeLa effector, CEM target cells, luciferase, cherry-pick, dose response (AID 652058); type: functional, cell-based;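 note: luciferase signal from HIV-1 Env mediated cell-cell fusion of effector and target cells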
[9] = reduction of Shn3 3'UTR-driven luciferase in osteoblasts – cell-based, Clone20 osteoblasts, firefly luciferase, cherry-picked, dose response (AID 624132); type: functional;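 note: firefly luciferase luminescence from reporter carrying the Shn3 3'UTR in osteoblasts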
[10] = loss of viability in HepG2 cells – cell-based, CellTiter-Glo, cherry-picked, cytotoxicity control for Shn3 inhibitor project, dose response (AID 624134); type: functional
[11] = non-specific 3'UTR reporter inhibition in Clone20-Shn3RL – cell-based, Renilla luciferase, cherry-picked, counter-screen for Shn3 inhibitor project, dose response (AID 624133); type: functional
[12] = blockers of HIV-1 envelope-mediated cell-cell fusion – cherry-pick, dose response (AID 652057); type: functional, cell-based
[13] = off-target signal loss in HeLa-CEM21 co-culture – HeLa F-luc CTL cells, cherry-picked, counter-screen for HIV-1 Env fusion inhibitor project, dose response (AID 652040); type: functional, cell-based;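 note: potency for signal decrease marking cytotoxic or nonspecific inhibition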
[14] = HIV-1 AD8 envelope cell-cell fusion blockers – cherry-pick, dose response (AID 652062); type: functional, cell-based;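 note: luciferase signal from cell-cell fusion driven by HIV-1 clade B AD8 Env; potency is for inhibitors of fusion seen as a drop in luminescence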
[15] = target: T3, Ubiquitin-conjugating enzyme E2 N (Homo sapiens, UniProt P61088); type: functional;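 note: Dose-response confirmation in a TR-FRET assay detecting UBC13-driven polyubiquitin chain formation, inhibition measured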
T3 sequence (P61088 whole entry): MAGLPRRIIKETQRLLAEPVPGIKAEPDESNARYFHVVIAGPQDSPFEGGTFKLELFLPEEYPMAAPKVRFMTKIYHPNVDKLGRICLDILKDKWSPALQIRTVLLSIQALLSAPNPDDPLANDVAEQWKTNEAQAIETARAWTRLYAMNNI

cells [16] = type: functional
[17] = antiviral protection against BTV-induced cell death – arbovirus, BSR cells, confirmation (AID 1250); type: functional;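 note: protection from viral cytopathic effect measured as cell viability by ATP luminescence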

CC(C)CCN1CCc2nc(-c3ccccc3)c3c(c2C1)COC(C)C3 (centres undefined)
AC50 (Cytochrome P450 3A4): 3.16 µM (inconclusive)

Cc1sc2ncnc(Sc3ccccc3C(=O)O)c2c1C
IC50 (cells [1]): > 138 µM (inactive)
IC50 (Major prion protein): 0.908 µM (active)

FC(F)(F)c1cccc(Sc2nc(-c3ccccc3)nnc2C(F)(F)F)c1
IC50 [2]: 21.4 µM (not active)
EC50 (Beta-galactosidase): > 40 µM (inactive)

SC1=NCCc2ccccc2C1c1ccccc1Cl (centres undefined)
IC50 [2]: 13.8 µM (active)
EC50 (Beta-galactosidase): > 40 µM (inactive)

CCOc1ccc(C2C(C#N)=C(N)SC(N)=C2C#N)cc1OCC
IC50 (cells [1]): > 138 µM (inactive)
IC50 (Major prion protein): 2.32 µM (active)

CCC1(C)Cc2ccccc2-c2[nH]c(=S)[nH]c(=O)c21 (centres undefined)
IC50 (Major prion protein): 2.93 µM (active)

CCC1(C)Cc2ccccc2-c2nc(S)nc(O)c21 (centres undefined)
IC50 (cells [1]): > 138 µM (inactive)

Cc1ccnc(NS(=O)(=O)c2ccc(NC(=O)c3ccc(Cl)cc3[N+](=O)[O-])cc2)n1
IC50 [3]: 13.2 µM (active)

FC(F)(F)c1ccc(CN2C[C@@H]3C(c4ccccc4)C4(c5ccccc5)CC3(C4)[C@H]2c2ccccc2)cc1 (some centres undefined)
AC50 (Cytochrome P450 3A4): 15.8 µM (inconclusive)

CC(=O)Nc1ccc(NC(=O)CCC(=O)OCC(=O)c2ccc(C)c([N+](=O)[O-])c2)cc1
IC50 [2]: > 40 µM (not active)
EC50 (Beta-galactosidase): > 40 µM (inactive)

O=C(NC(N=C(S)Nc1c(Cl)cccc1Cl)C(Cl)(Cl)Cl)c1cccc([N+](=O)[O-])c1 (centres undefined)
EC50 [4]: > 60 µM (not active)
EC50 [5]: 12.4 µM (active)
EC50 [6]: 16.2 µM (active)
EC50 [7]: 2.22 µM (active)

O=C(c1ccccc1)N1CCN(c2ncnc3sc4c(c23)CCC4)CC1
AC50 [8]: 41.4 µM (active)
AC50 [9]: 4.14 µM (active)
AC50 [10]: 48 µM (active)
AC50 [11]: 4.25 µM (active)
AC50 [12]: 28.7 µM (active)

COc1ccc([C@@H]2[C@@H]3C(=O)N(C(C)(C)C)C(=O)[C@@H]3[C@]3(CC(C)C)C(=O)N(c4ccc(C(F)(F)F)cc4)C(=O)N23)cc1
AC50 [8]: 2.51 µM (active)
AC50 [13]: 3.8 µM (active)
AC50 [14]: 4.52 µM (active)
AC50 [12]: 1.6 µM (active)

O=C(COc1ccc(Cl)cc1)NNC(=O)c1ccccn1
IC50 [15]: > 20 µM (inactive)
IC50 (cells [16]): 6.74 µM (active)

Cc1ccc(C(=O)CNc2ccccc2C)cc1
IC50 [2]: 8.2 µM (active)
EC50 (Beta-galactosidase): > 40 µM (inactive)

COc1cccc(OC)c1C(=O)NC(C)C12CC3CC(CC(C3)C1)C2 (centres undefined)
IC50 [17]: 22.7 µM (active)

O=C1NC(c2ccccc2)=C(c2ccc3ccccc3n2)C(c2ccncc2)N1 (centres undefined)
IC50 [3]: 4.57 µM (active)
